Results from patent US20240130675A1, “Methods for Treating Autism Spectrum Disorder” (The General Hospital Corporation, priority 2021, published 2024).

Columns and labels:
ASD behaviors = settings: 12 week, mean dose 5 mg/day; cited from earlier work
youth with ASD = experiment: 12-week RCT: associated psychopathology and global functioning (ADHD-RS, CASI-ANX, CDRS-R, GAF); assay type: in vivo, human; settings: MEM [N = 16]
Procedure: This study was a 12-week, randomized, double-blind, placebo-controlled, parallel group clinical trial of memantine in youth with ASD. Youth with ASD who met the eligibility criteria were randomized to receive either memantine or placebo during the course of the 12-week trial. Participants underwent multimodal MRI scans prior to and upon completion of the 12-week trial. Participants were assessed weekly during the titration phase (baseline to Week 4) and at midpoint (Week 6), Week 9, and completion (Week 12) during the maintenance phase. At each study visit, safety and efficacy were assessed by administering measures of efficacy (CGI, GAF), tolerability (assessing treatment-emergent AEs), and safety (vital signs, including weight). At baseline, midpoint, and endpoint (completion/early termination) severity of autism was assessed by administering measures of autism severity (SRS-2, ABC-SW, CY-BOCS-PDD) and associated psychopathology (ADHD-RS, CDRS-R, CASI-ANX).
Additional treatment response of autism impairment was examined for the ASD subdomains by assessing change with treatment in the severity of the SRS-2 subscales and the Children's Yale Brown Obsessive Compulsive Scale modified for PDD (CY-BOCS-PDD) (Goodman et al., 1986 (Rev 89); Scahill et al., 2006) to assess change with treatment in the ritualistic behaviors associated with ASD. Treatment response of frequently associated psychopathologies with ASD was assessed by administering the clinician-rated Attention Deficit Hyperactivity Disorder Rating Scale (ADHD-RS) (DuPaul, Power, Anastopoulos, & Reed, 1998), Children's Depression Rating Scale-Revised (CDRS-R)(Poznanski et al., 1985), and CASI-4 ASD Anxiety Scale (CASI-4 ASD Anxiety Scale (CASI-Anx)(Gadow et al., 2002). Change with treatment in the level of global functioning was assessed by the clinician-rated GAF.
The mixed-effects regression models used to analyze the secondary measures of efficacy predicted the outcome measure from treatment group (memantine versus placebo), study visit (continuous), and the treatment group-by-study visit interaction, which is our test of efficacy. To examine the effect of baseline PgACC glutamate activity level on the response to treatment, we predicted outcomes measures from treatment group, study visit (continuous), PgACC glutamate activity level (continuous), treatment group-by-study visit interaction, glutamate activity level-by-study visit interaction, treatment group-by-glutamate activity level interaction, and treatment group-by-glutamate activity level-by-study visit interaction. All mixed-effects regression models had random intercepts by subject ID, used robust standard errors to account for the repeated measures on each subject, and used an independent covariance structure for the random effects. […] All missing data were assumed to be missing at random.
Effect sizes are presented as standardized mean differences (SMD) for continuous outcomes and odds ratios (OR) for dichotomous outcomes. The SMDs for the difference of the changes in scores over time between memantine and placebo and between high glutamate and normal glutamate were calculated as Cohen's d using the following calculations: the difference in the change scores between the two groups divided by the pooled standard deviation. The SMDs for changes in scores within groups were calculated as Cohen's d using the following calculation: difference in score from baseline to endpoint divided by the pooled standard deviation. For comparisons of memantine versus placebo and high glutamate versus normal glutamate, positive SMDs and ORs>1 indicate better improvement in the memantine group and high glutamate group, respectively. For comparisons of ASD versus healthy controls, positive SMDs indicate lower glutamate activity levels in the ASD group. […]

**Q.** With `CC12CC3CC(C)(C1)CC(N)(C3)C2` [MEM, memantine] as the compound, how does the “ASD behaviors relative to placebo response” value (ASD behaviors) read?
**A.** no improvement in ASD behaviors

**Q.** What about the ADHD-RS (youth with ASD; BL (baseline)) of the same compound?
**A.** 29.1 ± 13.6

**Q.** What about the CASI-ANX (youth with ASD; BL (baseline)) of the same compound?
**A.** 14.7 ± 8.6

**Q.** And the CDRS-R (youth with ASD; BL (baseline))?
**A.** 31.4 ± 17.1

**Q.** And the GAF (youth with ASD; BL (baseline))?
**A.** 53.6 ± 2.7

**Q.** What about the ADHD-RS (youth with ASD; EP (endpoint)) of the same compound?
**A.** 18.8 ± 10.9

**Q.** And the CASI-ANX (youth with ASD; EP (endpoint))?
**A.** 7.4 ± 5.6

**Q.** What about the CDRS-R (youth with ASD; EP (endpoint)) of the same compound?
**A.** 22.8 ± 7.5

**Q.** What about the GAF (youth with ASD; EP (endpoint)) of the same compound?
**A.** 61.8 ± 4.4

**Q.** What about the ADHD-RS (youth with ASD; MD (mean difference)) of the same compound?
**A.** −10.3 ± 10.6

**Q.** And the CASI-ANX (youth with ASD; MD (mean difference))?
**A.** −7.3 ± 6.2

**Q.** What about the CDRS-R (youth with ASD; MD (mean difference)) of the same compound?
**A.** −8.7 ± 10.8

**Q.** And the GAF (youth with ASD; MD (mean difference))?
**A.** 8.2 ± 5.9
